Data from ChEMBL document CHEMBL3430912, “GSK Tres Cantos Anti-Kinetoplastid Screening (TCAKS) Data”.

Experiments:
[1] = system: Trypanosoma cruzi; test: GSK_TCAKS: pIC50 Trypanosoma cruzi viability assay using beta-GAL activity. This assay was run at single shot at 5uM compound concentration per well. The biological reagents consisted of NIH-3T3 host cells and trypomastigotes parasitic cells; both cell types were set to a 3.3 * 10^5 cells/mL dilution in assay DMEM by means of a CASY cell counter device using a 60um capillary. 6 uL of the mixture were dispensed per well (about 1 * 10^3 host-cells and 1 * 10^3 parasites) with a Multidrop Combi dispenser. […] In all wells, the percentage of DMSO never exceeded 0.5%. Plates incubated for four days at 37C, 5% CO2. The substrate used for the assay fluorescence intensity (FLINT) readout was resorufin-beta-D-galactopiranoside (Sigma-Aldrich) at 5uM per well. It was diluted in PBS supplemented with the soft detergent Igepal (Fluka).; format: functional, organism-based, Mus musculus; settings: Tulahuen, NIH3T3
[2] = system: Trypanosoma cruzi; test: GSK_TCAKS: pIC50 Trypanosoma cruzi Imaging: Amastigotes/Cell. […] Cells were then washed once with PBS before infection. T. cruzi trypomastigotes, collected at days 5 to 8 after infection from LLC-MK2 parasite infected cultures, were allowed to swim out for 4h at 37C from a centrifuged pellet (2,500 rpm/10 min/room temperature). Trypomastigotes were then collected and counted in a CASY Cell Counter. Trypomastigotes, in supplemented DMEM, were added to H9c2 cultures in a multiplicity of infection of 1 and incubated for 18 h. Cells were washed once with PBS before incubation of the infected H9c2 monolayer with trypsin (Life-Technologies) to detach cells from the flask. Cells were counted in a CASY Cell Counter using a 150 um capillary and their density set at 5 * 10^4 cells per mL in supplemented assay DMEM. Infected H9c2 were dispensed into 384-well poly-lysine coated assay plates at 50uL per well using a Multidrop Combi dispenser. After seeding them, the plates were incubated at 37C, 5% CO2 for 72h. Cultures were then fixed and stained by addition of 50 uL of a solution containing 8% formaldehyde and 4 uM DRAQ5 DNA dye (BioStatus, UK) per well. […] Five images were collected per well for reliable statistical analysis. Automated image analysis was performed with a script developed on Acapella High Content Imaging and Analysis Software (PerkinElmer). Output: number of amastigotes per cell as infection level measurement.; format: functional, organism-based, Rattus norvegicus; settings: H9c2, 4 h
[3] = system: Leishmania donovani; test: (§1) GSK_TCAKS: pIC50 Leishmania donovani Imaging: THP-1 Host Macrophages. Assay plates (384-well) were prepared by adding 250nL of compound to each well. For single shot assay, the final compound concentration was 5 uM. […] Automated image analysis was performed with a script developed on Acapella High Content Imaging and Analysis Software (PerkinElmer). Output: THP-1 cell count were reported for each well.; format: functional, organism-based, Homo sapiens
[4] = target: Sterol 14-alpha demethylase (Trypanosoma cruzi (strain CL Brener), UniProt Q7Z1V1); test: GSK_TCAKS: pIC50 CYP51 from Trypanosoma cruzi.; format: functional
[5] = system: NIH3T3; test: GSK_TCAKS: pIC50 NIH 3T3 cell line viability assay using luminiscence. Tissue culture surface treated assay plates (1536-well) were used. […] The 100% cells survival control was determined exposing the host-cells to a 0.5% DMSO concentration, whereas the 100% toxicity control was achieved by seeding the cells in presence of Amphotericin B at 50uM. Plates were incubated for four days at 37C, 5% CO2. The assay readout was developed by addition of 5uL of CellTiter-Glo Reagent following the manufacturer's instructions. Luminiscence was measured using a ViewLux.; format: functional, cell-based; settings: Mus musculus, NIH3T3, 96 h
[6] = system: Trypanosoma cruzi; test: (§2) GSK_TCAKS: pIC50 Trypanosoma cruzi Imaging: Infected Cells. […] Cells were then washed once with PBS before infection. T. cruzi trypomastigotes, collected at days 5 to 8 after infection from LLC-MK2 parasite infected cultures, were allowed to swim out for 4h at 37C from a centrifuged pellet (2,500 rpm/10 min/room temperature). Trypomastigotes were then collected and counted in a CASY Cell Counter. Trypomastigotes, in supplemented DMEM, were added to H9c2 cultures in a multiplicity of infection of 1 and incubated for 18 h. Cells were washed once with PBS before incubation of the infected H9c2 monolayer with trypsin (Life-Technologies) to detach cells from the flask. Cells were counted in a CASY Cell Counter using a 150 um capillary and their density set at 5 * 10^4 cells per mL in supplemented assay DMEM. Infected H9c2 were dispensed into 384-well poly-lysine coated assay plates at 50uL per well using a Multidrop Combi dispenser. After seeding them, the plates were incubated at 37C, 5% CO2 for 72h. Cultures were then fixed and stained by addition of 50 uL of a solution containing 8% formaldehyde and 4 uM DRAQ5 DNA dye (BioStatus, UK) per well. […] Five images were collected per well for reliable statistical analysis. Automated image analysis was performed with a script developed on Acapella High Content Imaging and Analysis Software (PerkinElmer). Output: percentage of infected cells per well as a second infection marker.; format: functional, organism-based, Rattus norvegicus; settings: H9c2, 4 h
[7] = GSK_TCAKS: pIC50 HepG2 human cell line viability assay using luminiscence. […] Seeding density was checked to ensure that new mono-layers were not more than 50% confluent at the time of harvesting. Cell suspension was added to 500 mL of the same medium at a final density of 1.2 * 10^5 cells/mL. This cell suspension was dispensed (25 uL, 3000 cells per well) into 384-well clear-bottom plates using a Multidrop Combi dispenser. Prior to addition of the cell suspension, the screening compounds (250 nL) were pre-dispensed into the plates with an Echo liquid handler. Plates were incubated for 48 h at 37C, 5% CO2. After incubation, plates equilibrated at room temperature for 30 min before proceeding to develop the luminescent signal. The signal developer, CellTiter-Glo Reagent, was allowed to equilibrate at room temperature for 30 min and added to the plates (25uL per well) using a Multidrop Combi dispenser. Plates were left for 10 min at room temperature for stabilization and then read using a ViewLux.; format: toxicity, cell-based
[8] = system: Trypanosoma brucei brucei; test: GSK_TCAKS: pIC50 Trypanosoma brucei viability assay using fluorescence intensity. Assay plates (1536-well) were prepared by dispensing 25nL of compound solution per well using an Echo acoustic dispenser (Labcyte).; format: functional, organism-based; settings: Lister 427, 2 h
[9] = system: Trypanosoma brucei brucei; test: GSK_TCAKS: pIC50 Trypanosoma brucei viability assay using luminiscence. Assay plates (1536-well) were prepared. T. brucei cultures were harvested and counted in a CASY cell counter. A parasite suspension was prepared at a final concentration of 5 * 10^4 cells/mL in complete HMI9 medium and 6uL was dispensed to all wells containing compounds using a Multidrop Combi dispenser. 6uL of HMI9 media with 0.4% DMSO were dispensed to control columns. Plates were incubated for 24 h at 37C, 5% CO2 then tempered for 10 min at room temperature. ATP content was quantified by adding 4 uL of CellTiter-Glo Reagent (Promega) according to the manufacturer's instructions. Luminescence was measured using a ViewLux.; format: functional, organism-based; settings: Lister 427, CASY
[10] = system: Leishmania donovani; test: GSK_TCAKS: pIC50 Leishmania donovani viability assay using fluorescence intensity. Assay plates (1536-well) were prepared by adding 30nL per well of compound. For single shot assay, the final compound concentration was 5uM. […] Briefly, eGFP LdBOB axenic amastigotes were harvested, fixed and counted in a CASY cell counter (Roche-Applied Science). A final concentration of 1.5 * 10^5 cells per well were prepared in amastigote media containing 500 U/mL penicillin/streptomycin (Invitrogen) and 6uL was dispensed to each experimental well using a Multidrop Combi dispenser (Thermo Scientific). 6uL of assay media was dispensed to control columns used as reference for 100% compound response. Following incubation for 72 h at 37C, 5% CO2, 2 uL of resazurin was added to each well at a final concentration of 0.5 mM in phosphate buffered saline (PBS) with IGEPAL (Sigma-Aldrich), 0.05% (v/v).; format: functional, organism-based
[11] = system: Leishmania donovani; test: as §1, with “Infected” for “THP-1 Host”, “Percent of infected macrophage cells” for “THP-1 cell count”; format: functional, organism-based, Homo sapiens; settings: THP-1
[12] = system: Trypanosoma cruzi; test: as §2, with “H2C9” for “Trypanosoma cruzi”, “H9c2 Host Cardiomyocytes.” for “Infected Cells.”, “Number” for “percentage”, “H9c2 Host Cardiomyocytes nuclei to determine drug-related cytotoxicity.” for “infected cells per well as a second infection marker.”; format: functional, organism-based, Rattus norvegicus; settings: H9c2, 4 h
[13] = system: Leishmania donovani; test: as §1, with “Amastigotes/Macrophages.” for “THP-1 Host Macrophages.”, “Average number of amastigotes per macrophage” for “THP-1”, “cell” for “cell count”; format: functional, organism-based, Homo sapiens; settings: THP-1

Sterol 14-alpha demethylase, sequence (Q7Z1V1 whole entry): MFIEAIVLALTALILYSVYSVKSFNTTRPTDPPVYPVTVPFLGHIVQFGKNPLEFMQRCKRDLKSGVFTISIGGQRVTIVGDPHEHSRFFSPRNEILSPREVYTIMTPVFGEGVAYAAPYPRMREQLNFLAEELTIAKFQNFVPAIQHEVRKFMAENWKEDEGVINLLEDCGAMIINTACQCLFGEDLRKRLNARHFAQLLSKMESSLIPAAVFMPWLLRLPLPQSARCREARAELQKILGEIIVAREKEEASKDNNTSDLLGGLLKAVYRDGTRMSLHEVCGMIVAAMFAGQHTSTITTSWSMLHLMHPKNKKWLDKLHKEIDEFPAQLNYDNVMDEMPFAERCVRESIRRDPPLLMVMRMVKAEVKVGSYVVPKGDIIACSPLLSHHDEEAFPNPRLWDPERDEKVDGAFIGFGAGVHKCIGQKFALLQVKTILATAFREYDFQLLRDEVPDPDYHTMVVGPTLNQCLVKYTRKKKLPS

Row | SMILES | IC50 [1] [µM] | IC50 [2] [µM] | IC50 [3] [µM] | IC50 [4] [µM] | IC50 [5] [µM] | IC50 [6] [µM] | IC50 at 48 h [7] [µM] | IC50 [8] [µM] | IC50 [9] [µM] | IC50 [10] [µM] | IC50 [11] [µM] | IC50 [12] [µM] | IC50 [13] [µM]
1 | Cc1ccc2nc(N(Cc3cccnc3)C(=O)CCc3ccccc3)sc2c1 | 0.0398 | 0.0316 | > 50.1 | 0.0631 | 15.8 | 0.0398 | > 100 | 12.6 | 20 | 25.1 | > 50.1 | > 50.1 | > 50.1
2 | O=C(COc1ncnc2cc([N+](=O)[O-])ccc12)NC(=O)NC1CCCCC1 | 1.26 | 0.501 | > 50.1 | > 100 | > 50.1 | 1 | > 100 | 6.31 | > 39.8 | > 50.1 | > 50.1 | > 50.1 | > 50.1
3 | COc1ccc(S(=O)(=O)NCc2ccc(-c3ccc(CN(C)CCO)cc3)cc2)cc1 | 0.0398 | 1.26 | 20 | 15.8 | 15.8 | 2.51 | 50.1 | 3.16 | 3.16 | > 50.1 | 15.8 | > 50.1 | 20
4 | CCCN1CCN(Cc2ccc(S(=O)(=O)Nc3cccc(C)c3)cc2)CC1 | 0.794 | 0.631 | > 50.1 | > 100 | 25.1 | 0.794 | > 100 | 25.1 | > 39.8 | 25.1 | > 50.1 | > 50.1 | > 50.1
5 | O=C(CSc1ccc(-c2ccccn2)nn1)Nc1ccc(Cl)cc1 | 2.51 | 2 | > 50.1 | > 100 | 31.6 | 2.51 | > 100 | 10 | > 39.8 | > 50.1 | > 50.1 | > 50.1 | > 50.1
6 | O=C(Nc1cccc(F)c1)N1CCC(Oc2cccc(-c3cccnc3)c2)CC1 | 0.631 | 0.501 | 20 | 0.158 | 39.8 | 0.631 | > 100 | 25.1 | > 39.8 | 0.501 | > 50.1 | 25.1 | 0.794
7 | O=[N+]([O-])c1cccc(Nc2cncc(-c3ccccc3CO)c2)c1 | 0.316 | 0.251 | > 50.1 | 3.16 | 39.8 | 0.398 | > 100 | > 39.8 | > 39.8 | 39.8 | > 50.1 | > 50.1 | > 50.1
8 | O=C(NC(c1ccc(Cl)cc1)c1cnccn1)C1CCN(C(=O)Nc2cccc(C(F)(F)F)c2)CC1 (centres undefined) | 0.631 | 0.501 | 39.8 | 0.126 | 39.8 | 0.631 | > 100 | 12.6 | 6.31 | 20 | > 50.1 | > 50.1 | > 50.1
